{"source": "patent US7714014B2", "about": "“Targeting GLI proteins in human cancer by small molecules” (The Regents of the University of California, priority 2005, dated 2010)", "tested_on": "melanoma cell lines Malme-3M, A375, G361, SK-Mel-2, SK-Mel-5, and SK-Mel-28", "assay": "Time course of cell survival (flow cytometry)", "type": "cell-based, human", "method": "The time course of cell survival in melanoma cell lines (Malme-3M, A375, G361, SK-Mel-2, SK-Mel-5, and SK-Mel-28) after administration of small molecule compound FN1-8 was analyzed. These melanoma cells were incubated with 10 μM or 20 μM FN1-8. Then flow cytometry was used to examine the percentage of living and dead cells at different time points. […] (FIGS. 18A, B, and C, and data not shown)."}
{"compound": "O=C(NCCc1ccc(O)cc1)C1C(c2ccccc2)=NN(c2ccccc2)C1c1ccccc1", "note": "(centres unmarked) [FN1-8, N-(2-(4-Hydroxyphenyl)ethyl)-1,3,5-triphenyl-4,5-dihydro-pyrazole-4-carboxyamide]", "values": [{"measurement": "time after which cell killing effect was apparent", "setting": "20 μM, all tested melanoma cells", "result": 2, "unit": "days"}, {"measurement": "apoptosis in time course experiment", "setting": "Malme-3M, A375, SK-Mel-5 (FIG. 14)", "result": "induces significant apoptosis"}]}
